Test results as given in US20170035708A1, “USE OF N-(4-TERT-BUTYLBENZYL)-3-CHLORO-N-[2-(4-CHLORO-3-ETHYL-PHENYL)-ETHYL]-2-FLUORO-5-TRIFLUOROMETHYL-BENZAMIDE FOR THE TREATMENT OF EYE DISEASES” (Hoffmann-La Roche Inc., priority 2013, published 2017).

What was measured:
scavenger receptor SRB1 = test: Cholesterol efflux from cells; assay type: cell-based; details: via scavenger receptor SRB1
Source text: (§1) N-(4-tert-Butyl-benzyl)-3-chloro-N-[2-(4-chloro-3-ethyl-phenyl)-ethyl]-2-fluoro-5-trifluoromethyl-benz-amide is a potent inhibitor of cholesteryl ester transfer protein (CETP), which was originally developed for the treatment of dyslipidemia and prevention of cardiovascular events. The clinical development was discontinued in 2009 due to strategic portfolio decision; the discontinuation was not due to the safety profile of the product. […] Liquid-filled hard capsules in the dose strength of 60 mg have been developed.

[1] = Physicochemical properties (solubility, stability, lipophilicity)
Source text: as §1
The pharmacokinetic (PK) properties of N-(4-tert-Butyl-benzyl)-3-chloro-N-[2-(4-chloro-3-ethyl-phenyl)-ethyl]-2-fluoro-5-trifluoromethyl-benz-amide were assessed in the rat and cynomolgus monkey. […] The very high protein binding, in combination with moderate membrane permeability, is the likely cause for the low volume of distribution observed in vivo.

[2] = system: Human umbilical vein endothelial cells (HUVEC); test: alamarBlue viability assay in HUVECs; assay type: cell-based; details: 72 h
Protocol: Human umbilical vein endothelial cells (HUVEC), the growth medium EGM and the basal medium EBM was obtained from Lonza. Additional FCS for the starving medium was used form Invitrogen.
The viability assay with alamarBlue® from Invitrogen was done in 96 well gelatin coated plates from BD.
The tested compounds were dissolved in DMSO at a stock concentration of 10 mM.
VEGF-A165 was obtained from R&D Systems® and has been dissolved at a stock concentration of 100 ug/ml in PBS.
HUVECs cells were maintained in Endothial growth medium (EGM) until Passage 5. For the viability assay HUVECs have been seeded in EBM with 0.5% FCS on gelatin coated 96 well plates at a cell density of 11.000 cells/well. Outer wells were left free and have been filled with medium afterwards. Cells were incubated overnight in a cell culture incubator at 37° C. with 5% CO2. Compounds and VEGF have been diluted in EBM/0.5% FCS to a 20× working concentration. 5 ul of the 20× pre-dilution have been added to the cells. HUVECs which have to be intended to grow under hypoxia conditions have been transferred to a cell culture incubator with 1% O2, 5% CO2 and 37° C. HUVECs grown under normoxia conditions were incubated in a normal cell culture incubator. After 72 h, 11 ul of alamarBlue® have been added to each well of the cells subsequently incubated for 4 h in the cell culture incubator. The absorbance has been detected at 570 nm with a reference wavelength of 600 nm.

lipophilicity [1]: highly lipophilic
solubility in aqueous media ([1]; aqueous media): practically insoluble
dissolution rate ([1]; as cause of limited absorption): low
solubility ([1]; as cause of limited absorption): low
solubility in common organic solvents ([1]; common organic solvents): soluble
stability of the powder ([1]; white to off-white powder): stable
SMILES: CCc1cc(CCN(Cc2ccc(C(C)(C)C)cc2)C(=O)c2cc(C(F)(F)F)cc(Cl)c2F)ccc1Cl [Compound 1, N-(4-tert-Butyl-benzyl)-3-chloro-N-[2-(4-chloro-3-ethyl-phenyl)-ethyl]-2-fluoro-5-trifluoromethyl-benzamide]
cholesterol efflux from cells (scavenger receptor SRB1): efflux cholesterol from cells via scavenger receptor SRB1
alamarBlue assay OD 570 nm-600 nm ([2]; 4.1 nM, hypoxia): −0.0059
alamarBlue assay OD 570 nm-600 nm ([2]; 4.1 nM, normoxia): 0.0073
alamarBlue assay OD 570 nm-600 nm ([2]; 10.2 nM, hypoxia): 0.0152
alamarBlue assay OD 570 nm-600 nm ([2]; 10.2 nM, normoxia): 0.0075
alamarBlue assay OD 570 nm-600 nm ([2]; 25.6 nM, hypoxia): 0.0144
alamarBlue assay OD 570 nm-600 nm ([2]; 25.6 nM, normoxia): 0.0056
alamarBlue assay OD 570 nm-600 nm ([2]; 64 nM, hypoxia): 0.0118
alamarBlue assay OD 570 nm-600 nm ([2]; 64 nM, normoxia): 0.0062
alamarBlue assay OD 570 nm-600 nm ([2]; 160 nM, hypoxia): 0.0233
alamarBlue assay OD 570 nm-600 nm ([2]; 160 nM, normoxia): 0.0127
alamarBlue assay OD 570 nm-600 nm ([2]; 400 nM, hypoxia): 0.0326
alamarBlue assay OD 570 nm-600 nm ([2]; 400 nM, normoxia): 0.0223
alamarBlue assay OD 570 nm-600 nm ([2]; 1000 nM, hypoxia): 0.0967
alamarBlue assay OD 570 nm-600 nm ([2]; 1000 nM, normoxia): 0.0600
alamarBlue assay OD 570 nm-600 nm ([2]; 2500 nM, hypoxia): 0.1488
alamarBlue assay OD 570 nm-600 nm ([2]; 2500 nM, normoxia): 0.1512
effect on viability of HUVECs ([2]; hypoxia): induced a strong cell survival
effect on viability of HUVECs ([2]; normoxia): positive effect of viability
